# Legend:
# [1] = target: Macrophage metalloelastase (Homo sapiens, UniProt P39900); assay: MMP12 Inhibition Assay; conditions: pH 8; 25 °C
# Procedure: The synthesized compounds were assayed for the inhibitory activities against MMP-12 in 96-well microtiter plates using thiopeptolide as the substrate. MMP-12 was diluted in Assay buffer (50 mM Tris pH7.5, 0.05% Brij-35, 10 mM CaCl2, 1 mM DTNB) to a concentration of 0.007 U/µL. The MMP-12 solution (44 µL) was premixed with 1 µL of inhibitors dissolved in DMSO in a 96-well plate, and the mixture was incubated for 20 min at room temperature. Then, 5 µL of 1 mM MMP chromogenic substrate (thiopeptolide) was added to the mixture, and the reaction mixture was incubated for 30-80 min at 37 °C. Reaction was terminated by adding 7 µL of 0.2 M EDTA (pH 8.0). The intensity of the color developed by the digested substrate was measuredat 405 nm.
# [2] = target: 72 kDa type IV collagenase (Homo sapiens, UniProt P08253); assay: MMP2 Inhibition Assay; conditions: pH 8.5; 25 °C
# 72 kDa type IV collagenase, sequence (P08253 whole entry): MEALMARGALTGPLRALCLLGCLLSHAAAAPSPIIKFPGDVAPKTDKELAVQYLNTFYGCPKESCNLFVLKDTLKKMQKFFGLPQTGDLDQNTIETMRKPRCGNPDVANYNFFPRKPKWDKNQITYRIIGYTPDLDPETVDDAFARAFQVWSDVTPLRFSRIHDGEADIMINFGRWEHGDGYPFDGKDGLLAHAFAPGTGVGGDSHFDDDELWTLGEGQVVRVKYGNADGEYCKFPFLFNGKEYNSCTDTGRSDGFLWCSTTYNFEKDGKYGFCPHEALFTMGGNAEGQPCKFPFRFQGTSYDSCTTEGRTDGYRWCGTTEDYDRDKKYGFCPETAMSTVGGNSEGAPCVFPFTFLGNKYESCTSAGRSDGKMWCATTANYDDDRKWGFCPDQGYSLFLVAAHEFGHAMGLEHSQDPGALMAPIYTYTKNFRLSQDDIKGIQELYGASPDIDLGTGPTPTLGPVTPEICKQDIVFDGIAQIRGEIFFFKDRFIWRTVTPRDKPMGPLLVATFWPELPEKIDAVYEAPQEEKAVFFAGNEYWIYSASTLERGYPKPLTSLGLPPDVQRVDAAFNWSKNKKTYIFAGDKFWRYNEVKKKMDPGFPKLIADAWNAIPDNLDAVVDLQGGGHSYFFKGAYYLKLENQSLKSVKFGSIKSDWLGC
# Procedure: The synthesized compounds were assayed for the inhibitory activities against MMP-2 in 96-well microtiter plates using succinylated gelatin as the substrate. The compound and enzyme were dissolved in sodium borate buffer (pH 8.5, 50 mM) and incubated at 37 °C for 30 min. The substrate was added and incubated at 37 °C for another 60 min. The 100% and blank groups were also carried out, in which the 100% group contained not compound and the blank group contained […]. Then, 0.03% picrylsulfonic acid solution was added and incubated at room temperature for additional 20 min. The resulting solutions were measured under 450 nm.
# Macrophage metalloelastase, sequence (P39900 whole entry): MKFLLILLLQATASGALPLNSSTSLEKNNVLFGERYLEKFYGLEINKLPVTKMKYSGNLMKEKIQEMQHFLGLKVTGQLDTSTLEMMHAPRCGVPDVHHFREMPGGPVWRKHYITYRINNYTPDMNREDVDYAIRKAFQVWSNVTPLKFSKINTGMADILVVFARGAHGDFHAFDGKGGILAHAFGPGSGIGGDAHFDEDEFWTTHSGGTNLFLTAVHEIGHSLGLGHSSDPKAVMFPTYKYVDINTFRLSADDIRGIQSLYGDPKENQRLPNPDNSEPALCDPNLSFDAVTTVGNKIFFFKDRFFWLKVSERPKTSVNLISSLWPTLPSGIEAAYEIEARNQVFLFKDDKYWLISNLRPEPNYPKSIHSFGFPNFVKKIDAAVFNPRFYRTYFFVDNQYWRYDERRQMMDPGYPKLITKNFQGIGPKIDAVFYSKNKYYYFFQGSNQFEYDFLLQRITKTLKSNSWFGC
Compound,IC50 [1] [µM],IC50 [2] [µM]
"COc1cc(NC(=S)NNC(=O)c2cc(Br)c(Br)n2C)cc(OC)c1OC [2-(1-Methyl-4,5-dibromo-1H-pyrrole-2-carbonyl)-N-(3,4,5-trimethoxyphenyl) hydrazine carbothioamide (5t)]",23.8,19.2
"Cn1c(C(=O)NNC(=S)Nc2ccccc2F)cc(Br)c1Br [2-(1-Methyl-4,5-dibromo-1H-pyrrole-2-carbonyl)-N-(2-fluorophenyl)hydrazine carbothioamide (5n)]",43.1,8

# Further lines, results first:
IC50 [1] [µM],IC50 [2] [µM],Compound
29,1.8,"O=C(NNC(=S)Nc1ccc(Cl)cc1)c1cc(Br)c(Br)[nH]1 [2-(4,5-Dibromo-1H-pyrrole-2-carbonyl)-N-(4-chlorophenyl)hydrazine carbothioamide (5e)]"
42.1,13.7,"O=C(NNC(=S)Nc1ccc([N+](=O)[O-])cc1)c1cc(Br)c(Br)[nH]1 [2-(4,5-Dibromo-1H-pyrrole-2-carbonyl)-N-(4-nitrophenyl)hydrazine carbothioamide (5c)]"
84.2,60.3,"Cn1c(C(=O)NNC(=O)Nc2ccco2)cc(Br)c1Br [2-(1-Methyl-4,5-dibromo-1H-pyrrole-2-carbonyl-N-(furan-2-yl))hydrazine carboxamide (4s)]"

# From BindingDB's records for doi:10.1111/cbdd.12481 (University of Kwazulu-Nata, 2015)
